Target: T1, CDK12 (nuclear staining in CAL-120 cells) (Homo sapiens, UniProt Q9NYV4)
T1 construct: endogenous in cells; host or cells: CAL-120 human breast cancer cells (DSMZ ACC 459)
Test: CDK12 nuclear protein level: immunofluorescence/high content analysis (CAL-120)
Type: cell-based
Details: for DC50: CAL-120 cells, 24 h, immunofluorescence, 50% reduction of nuclear CDK12 staining intensity, median, read-out: CDK12 degradation IF, DC50- [mol/l] (median); for (IC50 CDK12 high ATP) to (Degradation DC50 CDK12) ratio: ratio of IC50 CDK12 high ATP kinase assay to DC50 CDK12 degradation (IF, CAL-120)
Method: In the context of the present invention, the term “DC50 CDK12” refers to the DC50 values obtained according to the assay described in this section (7) herein below, i.e. the DC50 values for the degradation of CDK12.
Plates are then incubated for 24 h at 37° C. in an humidified incubator and fixed with 4% PFA for 10 min. […] Nuclear and cytoplasmic intensity as well as the nuclear/cytoplasmic intensity ratio is determined by automated image analysis using custom generated scripts (MetaXpress). Data is then transferred to Genedata Screener software, normalized to DMSO and control and DC50 values (degrading concentration to achieve 50% reduction of nuclear CDK12 staining intensity relative to controls) are reported.

T1 sequence (Q9NYV4 whole entry): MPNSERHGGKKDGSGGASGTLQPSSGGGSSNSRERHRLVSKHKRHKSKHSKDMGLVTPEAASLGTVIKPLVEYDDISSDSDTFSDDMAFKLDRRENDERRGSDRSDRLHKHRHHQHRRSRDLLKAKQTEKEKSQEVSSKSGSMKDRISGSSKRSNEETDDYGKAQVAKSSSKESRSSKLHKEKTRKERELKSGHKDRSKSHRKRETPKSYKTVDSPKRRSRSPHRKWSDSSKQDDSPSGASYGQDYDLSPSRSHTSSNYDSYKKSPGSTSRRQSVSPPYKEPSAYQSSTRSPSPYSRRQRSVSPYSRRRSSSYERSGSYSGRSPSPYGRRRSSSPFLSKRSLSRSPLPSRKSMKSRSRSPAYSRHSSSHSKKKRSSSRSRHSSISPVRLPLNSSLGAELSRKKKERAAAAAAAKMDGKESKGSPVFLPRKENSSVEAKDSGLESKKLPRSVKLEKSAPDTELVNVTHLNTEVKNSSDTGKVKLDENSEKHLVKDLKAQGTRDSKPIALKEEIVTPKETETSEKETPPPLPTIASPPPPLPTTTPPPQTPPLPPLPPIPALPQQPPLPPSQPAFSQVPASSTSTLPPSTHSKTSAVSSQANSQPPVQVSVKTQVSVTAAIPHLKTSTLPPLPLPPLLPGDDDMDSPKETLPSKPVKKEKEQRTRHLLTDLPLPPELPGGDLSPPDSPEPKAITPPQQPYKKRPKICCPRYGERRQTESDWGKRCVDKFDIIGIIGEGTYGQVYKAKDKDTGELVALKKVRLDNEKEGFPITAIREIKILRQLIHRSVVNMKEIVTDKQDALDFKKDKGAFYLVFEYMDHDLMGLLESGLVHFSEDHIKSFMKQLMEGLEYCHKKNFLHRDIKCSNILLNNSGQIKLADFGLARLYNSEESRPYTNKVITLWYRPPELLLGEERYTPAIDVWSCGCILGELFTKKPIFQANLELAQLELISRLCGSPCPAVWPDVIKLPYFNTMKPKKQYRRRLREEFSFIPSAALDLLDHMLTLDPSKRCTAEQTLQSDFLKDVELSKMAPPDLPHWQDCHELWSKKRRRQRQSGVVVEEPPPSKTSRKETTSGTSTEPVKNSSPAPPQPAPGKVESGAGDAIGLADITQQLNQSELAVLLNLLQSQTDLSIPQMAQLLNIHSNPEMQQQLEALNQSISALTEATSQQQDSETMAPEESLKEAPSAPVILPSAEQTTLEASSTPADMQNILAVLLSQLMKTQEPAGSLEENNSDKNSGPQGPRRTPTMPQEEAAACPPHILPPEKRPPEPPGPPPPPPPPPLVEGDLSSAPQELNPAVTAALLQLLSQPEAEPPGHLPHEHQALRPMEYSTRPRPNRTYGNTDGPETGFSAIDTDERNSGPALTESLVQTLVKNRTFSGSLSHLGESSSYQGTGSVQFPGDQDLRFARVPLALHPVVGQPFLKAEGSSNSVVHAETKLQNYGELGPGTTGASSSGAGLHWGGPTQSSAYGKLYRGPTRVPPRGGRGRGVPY
T1 sequence (O75909 whole entry partner): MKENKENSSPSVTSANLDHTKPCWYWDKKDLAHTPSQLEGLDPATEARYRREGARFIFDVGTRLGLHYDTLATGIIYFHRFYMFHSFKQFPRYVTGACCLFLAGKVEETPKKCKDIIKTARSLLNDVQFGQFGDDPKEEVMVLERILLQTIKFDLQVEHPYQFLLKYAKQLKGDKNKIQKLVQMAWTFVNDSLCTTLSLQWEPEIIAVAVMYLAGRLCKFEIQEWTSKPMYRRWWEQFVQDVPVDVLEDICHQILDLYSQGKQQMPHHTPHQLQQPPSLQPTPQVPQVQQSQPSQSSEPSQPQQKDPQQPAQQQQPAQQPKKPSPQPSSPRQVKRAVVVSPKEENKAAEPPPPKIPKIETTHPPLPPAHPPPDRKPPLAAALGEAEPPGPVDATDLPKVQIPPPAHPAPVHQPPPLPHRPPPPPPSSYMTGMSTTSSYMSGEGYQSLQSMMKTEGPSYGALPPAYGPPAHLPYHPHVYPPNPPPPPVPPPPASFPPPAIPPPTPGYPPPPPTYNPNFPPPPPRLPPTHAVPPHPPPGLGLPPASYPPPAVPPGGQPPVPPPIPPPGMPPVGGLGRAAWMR

| Structure (SMILES) | DC50 [nM] | (IC50 CDK12 high ATP) to (Degradation DC50 CDK12) ratio |
| --- | --- | --- |
| Brc1cnn2c(NCc3nc4ccccc4[nH]3)nc(N3C[C@H]4C[C@@H]3CO4)nc12 [Example 102, N-[(1H-benzimidazol-2-yl)methyl]-8-bromo-2-[(1R,4R)-2-oxa-5-azabicyclo[2.2.1]heptan-5-yl]pyrazolo[1,5-a][1,3,5]triazin-4-amine] | 1.41 | 4897 |
| CC(=O)NCCCc1cccc2[nH]c(CNc3nc(N4CCOCC4)nc4c(Br)cnn34)nc12.O=CO [Example 115, formic acid-N-{3-[2-({[8-bromo-2-(morpholin-4-yl)pyrazolo[1,5-a][1,3,5]triazin-4-yl]amino}methyl)-1H-benzimidazol-4-yl]propyl}acetamide (1/1)] | 45.3 | 256 |
| Fc1cc(-c2nnc(CNc3nc(N4CCOCC4)nc4c(Br)cnn34)[nH]2)cc(F)c1F [Example 100, 8-bromo-2-(morpholin-4-yl)-N-{[5-(3,4,5-trifluorophenyl)-4H-1,2,4-triazol-3-yl]methyl}pyrazolo[1,5-a][1,3,5]triazin-4-amine] | 10.2 | 122 |
| Brc1cnn2c(NCc3nc4ccccc4[nH]3)nc(N3C[C@@H]4C[C@H]3CO4)nc12 [Example 103, N-[(1H-benzimidazol-2-yl)methyl]-8-bromo-2-[(1S,4S)-2-oxa-5-azabicyclo[2.2.1]heptan-5-yl]pyrazolo[1,5-a][1,3,5]triazin-4-amine] | 5.36 | 1914 |
| NCCc1ccc2[nH]c(CNc3nc(N4CCOCC4)nc4c(Br)cnn34)nc2c1.O=CO [Example 113, formic acid-N-{[5-(2-aminoethyl)-1H-benzimidazol-2-yl]methyl}-8-bromo-2-(morpholin-4-yl)pyrazolo[1,5-a][1,3,5]triazin-4-amine (1/1)] | 8.64 | 197 |
| c1ccc(-c2cnn3c(NCc4nc5ccccc5[nH]4)nc(N4CCOCC4)nc23)cc1 [Example 104, N-[(1H-benzimidazol-2-yl)methyl]-2-(morpholin-4-yl)-8-phenylpyrazolo[1,5-a][1,3,5]triazin-4-amine] | 15.7 | >1272 |
| COc1ccc2[nH]c(CNc3nc(N4C[C@@H](C)O[C@@H](C)C4)nc4c(Br)cnn34)nc2c1 [Example 124, 8-bromo-2-[(2R, 6S)-2,6-dimethylmorpholin-4-yl]-N-[(5-methoxy-1H-benzimidazol-2-yl)methyl]pyrazolo[1,5-a][1,3,5]triazin-4-amine] | 0.768 | 636 |
| Clc1cccc(-c2cnn3c(NCc4nc5ccccc5[nH]4)nc(N4CCOCC4)nc23)c1 [Example 107, N-[(1H-benzimidazol-2-yl)methyl]-8-(3-chlorophenyl)-2-(morpholin-4-yl)pyrazolo[1,5-a][1,3,5]triazin-4-amine] | 57.7 | >347 |
| CC(C)c1cnn2c(NCc3nc4ccccc4[nH]3)nc(N(C)CC(C)(C)O)nc12 [Example 5, 1-{[4-{[(1H-benzimidazol-2-yl)methyl]amino}-8-(propan-2-yl)pyrazolo[1,5-a][1,3,5]triazin-2-yl](methyl)amino}-2-methylpropan-2-ol] | 11.4 | 455 |
| NCCCc1cccc2[nH]c(CNc3nc(N4CCOCC4)nc4c(Br)cnn34)nc12.O=CO [Example 114, formic acid-N-{[4-(3-aminopropyl)-1H-benzimidazol-2-yl]methyl}-8-bromo-2-(morpholin-4-yl)pyrazolo[1,5-a][1,3,5]triazin-4-amine (1/1)] | 38.8 | 210 |
| Fc1cc(F)cc(-c2nnc(CNc3nc(N4CCOCC4)nc4c(Br)cnn34)[nH]2)c1 [Example 105, 8-bromo-N-{[5-(3,5-difluorophenyl)-4H-1,2,4-triazol-3-yl]methyl}-2-(morpholin-4-yl)pyrazolo[1,5-a][1,3,5]triazin-4-amine] | 2.49 | 429 |
| CC(C)c1cnn2c(NCc3nc4ccccc4[nH]3)nc(N3CCCOCC3)nc12 [Example 8, N-[(1H-benzimidazol-2-yl)methyl]-2-(1,4-oxazepan-4-yl)-8-(propan-2-yl)pyrazolo[1,5-a][1,3,5]triazin-4-amine] | 20.7 | >956 |
| Cc1ccc(-c2nnc(CNc3nc(N4CCOCC4)nc4c(Br)cnn34)[nH]2)cc1F [Example 98, 8-bromo-N-{[5-(3-fluoro-4-methylphenyl)-4H-1,2,4-triazol-3-yl]methyl}-2-(morpholin-4-yl)pyrazolo[1,5-a][1,3,5]triazin-4-amine] | 38.5 | 28 |
| Fc1ccc2[nH]c(CNc3nc(N4CCOCC4)nc4c(Br)cnn34)nc2c1 [Example 101, 8-bromo-N-[(5-fluoro-1H-benzimidazol-2-yl)methyl]-2-(morpholin-4-yl)pyrazolo[1,5-a][1,3,5]triazin-4-amine] | 0.584 | 3856 |
| CN1CCN(c2nc(NCc3nnc(-c4ccccc4)[nH]3)n3ncc(Br)c3n2)CC1=O [Example 121, 4-(8-bromo-4-{[(5-phenyl-4H-1,2,4-triazol-3-yl)methyl]amino}pyrazolo[1,5-a][1,3,5]triazin-2-yl)-1-methylpiperazin-2-one] | 43.5 | 172 |
| C[C@H]1CN(c2nc(NCc3nnc(-c4ccccc4)[nH]3)n3ncc(Br)c3n2)CCN1C.O=CO [Example 122, 8-bromo-2-[(3S)-3,4-dimethylpiperazin-1-yl]-N-[(5-phenyl-4H-1,2,4-triazol-3-yl)methyl]pyrazolo[1,5-a][1,3,5]triazin-4-amine formate] | 2.47 | >8081 |
| c1cncc(-c2cnn3c(NCc4nc5ccccc5[nH]4)nc(N4CCOCC4)nc23)c1 [Example 108, N-[(1H-benzimidazol-2-yl)methyl]-2-(morpholin-4-yl)-8-(pyridin-3-yl)pyrazolo[1,5-a][1,3,5]triazin-4-amine] | 5.53 | >3617 |
| CC(C)c1cnn2c(NCc3nc4ccccc4[nH]3)nc(N3CCOC[C@H]3C)nc12 [Example 7, N-[(1H-benzimidazol-2-yl)methyl]-2-[(3R)-3-methylmorpholin-4-yl]-8-(propan-2-yl)pyrazolo[1,5-a][1,3,5]triazin-4-amine] | 63.6 | 161 |
| Fc1cccc2[nH]c(CNc3nc(N4CCOCC4)nc4c(Br)cnn34)nc12 [Example 97, 8-bromo-N-[(4-fluoro-1H-benzimidazol-2-yl)methyl]-2-(morpholin-4-yl)pyrazolo[1,5-a][1,3,5]triazin-4-amine] | 0.327 | 2411 |
| Brc1cnn2c(NCc3nnc(-c4ccccc4)[nH]3)nc(N3C[C@H]4C[C@@H]3CO4)nc12 [Example 118, 8-bromo-2-[(1R,4R)-2-oxa-5-azabicyclo[2.2.1]heptan-5-yl]-N-[(5-phenyl-4H-1,2,4-triazol-3-yl)methyl]pyrazolo[1,5-a][1,3,5]triazin-4-amine] | 4.85 | 1176 |
| CCC1COCCN1c1nc(NCc2nc3ccccc3[nH]2)n2ncc(Br)c2n1 (stereo not drawn) [Example 116, N-(1H-benzimidazol-2-ylmethyl)-8-bromo-2-(3-ethylmorpholin-4-yl)pyrazolo[1,5-a][1,3,5]triazin-4-amine] | 4.44 | 1517 |
| Clc1ccccc1-c1cnc(CNc2nc(N3CCOCC3)nc3c(Br)cnn23)[nH]1 [Example 96, 8-bromo-N-{[5-(2-chlorophenyl)-1H-imidazol-2-yl]methyl}-2-(morpholin-4-yl)pyrazolo[1,5-a][1,3,5]triazin-4-amine] | 5.73 | 812 |
| C[C@@H]1CN(c2nc(NCc3nc4cc(F)ccc4[nH]3)n3ncc(Br)c3n2)C[C@H](C)O1 [Example 110, 8-bromo-2-[(2R,6S)-2,6-dimethylmorpholin-4-yl]-N-[(5-fluoro-1H-benzimidazol-2-yl)methyl]pyrazolo[1,5-a][1,3,5]triazin-4-amine] | 1.03 | 394 |
| C[C@@H]1CN(c2nc(NCc3nc4c(F)cccc4[nH]3)n3ncc(Br)c3n2)C[C@H](C)O1 [Example 109, 8-bromo-2-[(2R,6S)-2,6-dimethylmorpholin-4-yl]-N-[(4-fluoro-1H-benzimidazol-2-yl)methyl]pyrazolo[1,5-a][1,3,5]triazin-4-amine] | 1.09 | 162 |
| Fc1ccc(-c2nnc(CNc3nc(N4CCOCC4)nc4c(Br)cnn34)[nH]2)cc1F [Example 99, 8-bromo-N-{[5-(3,4-difluorophenyl)-4H-1,2,4-triazol-3-yl]methyl}-2-(morpholin-4-yl)pyrazolo[1,5-a][1,3,5]triazin-4-amine] | 6.7 | – |
| Fc1ccc(-c2cnn3c(NCc4nc5ccccc5[nH]4)nc(N4CCOCC4)nc23)cc1 [Example 106, N-[(1H-benzimidazol-2-yl)methyl]-8-(4-fluorophenyl)-2-(morpholin-4-yl)pyrazolo[1,5-a][1,3,5]triazin-4-amine] | 11.4 | >876 |

Reference: patent US20230117034A1, “PYRAZOLOTRIAZINES” (Bayer Aktiengesellschaft, priority 2019, published 2023)
